In a melting point compilation (Tetko et al.; mined from patent text by program, amines drawn as free bases though some values may be those of a salt) one finds melting point data, which are given here for 87 compounds.

In general, melting point refers to the temperature of the solid-liquid transition.

The compound `COC(=O)c1cnc(N2CCN(Cc3ccccc3)CC2)nc1C` returned a melting point of 38 to 40 °C.
Regarding `COc1cccc2c1CC1OC1C2` (configuration not stated), the melting point is 49.5 to 50.5 °C.
Then `COC(=O)c1[nH]c(Br)c(Br)c1OC(C)C`, with 124 to 125 °C.
The compound `CCCCc1nc(CO)c(C(=O)NCC(=O)O)n1Cc1ccc(-c2ccccc2C(=O)O)cc1` returned a melting point of more than 110 °C.
In the case of `OCc1cc2cccc(Nc3cc(-c4ccc(C(F)(F)F)cc4)ncn3)c2[nH]1`, the melting point lay in the range of 221 to 223 °C.
As to `NS(=O)(=O)c1ccc(-c2c(-c3ccccc3)noc2CCO)cc1`, the melting point was 186 to 190 °C.
The compound `CC(C)(C)NC(=O)C1CCC(c2ccccc2)N1C(=O)CNC(=O)OC(C)(C)C` (configuration not stated) yielded a melting point of 117 °C.
Then `CC(C)Cn1c(CNC(=O)OC(C)(C)C)c(-c2cccs2)c2cc(O)ccc2c1=O`, with 216 to 217 °C.
Turning to `CC(=O)C(Cl)=NNc1ccc(Oc2ccccc2)cc1`, the melting point was in the range of 108 to 111 °C.
`CCCCCCCCCCCCCCC1COC2(CC(c3ccccc3)N(O)C(c3ccccc3)C2)O1` (configuration not stated) gave a melting point of 98 to 100 °C.
Turning to `CCCCCCCCCCCCCCCCCC(=O)Oc1ccccc1C(=O)OCC`, the melting point fell in the range of 50.5 to 53.5 °C.
Take `O=C1CC(O)CC(CCc2c(Cl)cc(Cl)cc2OCc2ccc(C(F)(F)F)cc2)O1` (configuration not stated): the melting point lay in the range of 104 to 105 °C.
Take `CC(Nc1nc(Oc2cccc3[nH]c(=O)c(N)nc23)cc(-c2ccc(C(F)(F)F)cc2)n1)c1ccc(F)cc1` (configuration not stated): the melting point is 434 °C.
`COC(=O)C1Cc2cc(Br)ccc2N1C(=O)c1ccccc1` (configuration not stated) yielded a melting point of 168 to 169 °C.
With `CC(C)(C)COc1c(-c2ccc(S(C)(=O)=O)cc2)cnn(-c2cccc(Cl)c2)c1=O`, the melting point fell in the range of 151 to 153 °C.
With `Cc1cc(O)c(S(=O)Cc2ccc(Cl)c(Cl)c2)c(=O)o1` (configuration not stated) the figure was 144 to 146 °C; with `COc1ccc2ccc(OCc3ccc4ccccc4n3)cc2c1`, 113 to 114 °C.
Take `CCOC(=O)CC(O)(CC)c1cc2n(c(=O)c1C)Cc1cc3ccccc3nc1-2` (configuration not stated): the melting point is 185 to 188 °C.
With `O=C(Nc1ccc(C(F)(F)F)cc1)N1CCC2Cc3ccccc3C2=N1` (configuration not stated) the figure was 122 to 124 °C.
Compound `CCCC(CC1CCc2c(cccc2OCC(=O)OC)C1)=NO` (configuration not stated) displayed a melting point of 95.9 to 97 °C.
For the compound `O=[N+]([O-])CS(=O)(=O)c1ccccc1F`, the melting point was found to be 59 °C.
Then `CCCC(=O)NC[C@@H]1C[C@H]1c1cc(OC)c(Br)cc1Br` (relative stereo), with 114 to 115 °C.
For `CC1NCc2ccsc2C1c1ccccc1` (configuration not stated), the melting point came to 78 °C.
The compound `CC(C)(C)OC(=O)NCc1cccc(C(=O)OCC#N)c1O` gave a melting point of 144 to 146 °C.
`COC(=O)c1cccc([N+](=O)[O-])c1CS(N)(=O)=O` yielded a melting point of 119 to 123 °C.
The compound `COc1ccc(C(=O)Nc2c(C)c(C)c3c(c2C)C(c2ccc(F)cc2)C(C)(C)O3)cc1` (configuration not stated) registered a melting point of 191 to 194 °C.
`Cc1cccc(-c2[nH]c(C(C)C)nc2-c2cccc(-c3ccc([N+](=O)[O-])cc3)c2)n1` registered a melting point of 95 to 105 °C.
The compound `CCCCCNc1cccc(C(=O)O)c1C(=O)O` showed a melting point of 236 to 238 °C.
With `O=C1OC(COc2ccc(CO)cc2)CN1c1ccc(Cl)cc1` (configuration not stated) the figure was 149 to 150 °C.
In turn, `CCCc1c(O)ccc2c(C)c(CC(=O)OC)c(=O)oc12` showed a melting point of 160 to 162 °C.
With `Nc1c([N+](=O)[O-])cnn1-c1c(Cl)cc(C(F)(F)F)c(Cl)c1Cl` the figure was 78 to 85 °C.
With `Cc1ccc(N=NN2C(C)(C)CC(O)CC2(C)C)cc1` the figure was 85 to 86 °C; with `Cn1cc(-c2ccccc2)c(=O)c(-c2cc(Br)ccc2F)c1`, 148 to 150 °C.
With `NC(=O)Nc1cccc2c1C(=O)c1c-2n[nH]c1-c1ccco1` the figure was 278 °C; with `COCCOc1cc(/C=C/C(=O)O)n(Cc2ccc(Cl)cc2Cl)n1`, 171 to 172 °C.
`COc1ccc(C(=O)Nc2nnn[nH]2)c(OC(C)C)c1` registered a melting point of 212 to 213 °C.
Take `CC(C#N)(C(N)=O)c1cccc(Oc2ccccc2)c1` (configuration not stated): the melting point lay within 123 to 125 °C.
Consider `O=C1c2ccccc2C(=O)N1Cc1cc(Cl)ccc1OCc1cccnc1`, for which the melting point was 173 to 175 °C.
As to `CC(=O)NCCSc1ccnc(CSc2nc3ccccc3[nH]2)c1C`, the melting point was in the range of 211 to 213 °C.
The compound `Cn1nc(C(F)(F)F)n(-c2ccc(C#Cc3ccccc3)cc2Cl)c1=S` showed a melting point of 50 to 53 °C.
As for `CCN(C1CC(C)(C)Oc2ccc(O)cc21)S(C)(=O)=O` (configuration not stated), the melting point was 169 to 170 °C.
The compound `O=C(O)c1ccc2c(c1)Sc1ccc(F)cc1C(O)C2` (configuration not stated) showed a melting point of 204 to 210 °C.
Turning to `C(=Cc1ccc2nc(-c3ccccc3)oc2c1)c1ccc(-c2nc3ccccc3o2)cc1`, the melting point is 233 to 237 °C.
Then `COc1cccc([C@H]2O[C@H](CC(=O)Nc3ccc4oc(C(=O)O)c(OCC(=O)O)c4c3)C(=O)N(CC(C)(C)CO)c3ccc(Cl)cc32)c1OC`, with 193 to 196 °C.
With `CCOC(=O)Cc1ccc(CCNS(=O)(=O)c2ccc(Cl)cc2)cc1` the figure was 88 to 90 °C; with `CCOC(=O)c1cn2c(=O)n(C)c3ccccc3n2c1=O`, 243 to 244 °C; with `CC(CCC(O)C(C)(C)O)C1CCC2C3CC=C4CC(O)CC(O)C4(C)C3CCC12C` (configuration not stated), 198 to 200 °C.
Then `COc1ccc2c(c1)Sc1c(cc(OC)c(O)c1Br)N2C(=O)OC(C)OC(C)=O` (configuration not stated), with 162 to 164 °C.
Compound `COC(=O)c1ccc2oc(-c3ccccc3OCC(C)OC(=O)c3ccccc3)cc(=O)c2c1` (configuration not stated) showed a melting point of 211 to 213 °C.
`COC(=O)C1(C(=O)OC)CCC(c2c(-c3ccccc3)n(C)c3ccccc23)CC1` gave a melting point of 134 to 135 °C.
`Cc1ccc(C)c(NC(=O)N2CCC(C#N)CC2)c1` showed a melting point of 187 to 190 °C.
In the case of `Nc1ccc(C(=O)c2ccccc2F)cc1`, the melting point fell in the range of 128 to 130 °C.
With `CC12CC(F)C3c4ccc(O)cc4CC(CCCCCBr)C3C1CCC2=O` (configuration not stated), the melting point came to 178 °C.
`C=CCOc1ccc(Nc2ccn(-c3ccccc3)n2)cc1` gave a melting point of 80 to 81 °C.
Take `COC(=O)C(Oc1ccc(F)cc1)c1ccc(Oc2ccc(S(C)(=O)=O)cc2)cc1` (configuration not stated): the melting point was in the range of 135 to 137 °C.
As for `CC(=O)N1CCN(CC(=O)OC2c3ccccc3C(=O)N2c2ccc3ccc(Cl)nc3n2)CC1` (configuration not stated), the melting point was 192 °C.
Compound `Cc1nn(-c2ccc([N+](=O)[O-])cc2F)c(=O)[nH]1` showed a melting point of 211 to 212 °C.
With `Nc1nc(N)c2c(CCCc3ccc(C(=O)N[C@@H](CCC(=O)O)C(=O)O)cc3)cnc-2[nH]1`, the melting point was more than 250 °C.
`CCN(CC)C(=O)CC1CCN(Cc2cnc3c(C)c(NC(=O)c4ccc(-c5ccc(F)cc5)cc4)ccc3c2)CC1` returned a melting point of 158 to 160 °C.
For `CSc1ccc(C(=O)Nc2c(Cl)cncc2Cl)cc1OC1CCCC1`, the melting point was in the range of 157 to 159 °C.
`N#CCc1cc(Cl)cc(Cl)c1Cl` displayed a melting point of 60 to 62 °C.
Regarding `COc1cccc2c1C(=O)c1ccccc1C21CCN(C)CC1`, the melting point is 170 to 172 °C.
Consider `CCSC1(S)CCC2C3CCC4=CC(=O)C=CC4(C)C3(F)C(O)CC21C` (configuration not stated), for which the melting point was 239 to 242 °C.
Regarding `CC(C)(C)Nc1nc(N2CCCC2)cc(N2CCNCC2)n1`, the melting point fell in the range of 162 to 165 °C.
With `CCOC(=O)N1CCC(n2c(=O)n(C)c3cc(Cl)ccc32)CC1` the figure was 122 °C; with `COc1ccc(-c2cc(-c3ccccc3)nc(C)c2C(=O)O)cc1OC`, 208 °C; with `CCCc1nc2c(N)nc3cc(OCCNS(C)(=O)=O)ccc3c2s1`, 148 to 151 °C.
Then `CCN(CC)CCc1cccc(N2C(=O)N(c3ccc(Cl)cc3Cl)Cc3cnc(Nc4ccccc4)nc32)c1`, with 186 °C; and `CC1C[C@H]2[C@@H](O1)[C@H](N=[N+]=[N-])C(=O)N2Cc1ccccc1` (relative stereo), with 70 to 73 °C.
As for `CCOC(=O)c1nn(Cc2ccc(Cl)cc2C)c2ccccc12`, the melting point was 120 to 122 °C.
Turning to `COc1ccc(NC(=O)Nc2ccc(Cl)c(Cl)c2)cc1NC(=S)Nc1cc(Cl)cc(Cl)c1`, the melting point worked out at 202 °C.
`OC(COc1cccc2c1SCCC2)CN1CCC(c2ccccc2)CC1` (configuration not stated) gave a melting point of 104 °C.
As to `CC(C)=C1C(=O)Nc2cc3[nH]c(-c4ccncc4)nc3cc21`, the melting point is more than 300 °C.
Then `CCn1cc(C(=O)O)c(=O)c2cc(F)c(N3CCN(C)C(COC(C)C)C3)cc21` (configuration not stated), with 184 to 186 °C; and `Cc1nc2cc(OCCCCl)ccc2s1`, with 63 to 65 °C; and `NC(=O)CC[C@H](NC(=O)OCc1ccccc1)C(=O)N[C@@H](Cc1ccc(O)cc1)C(=O)OCc1ccccc1`, with 165 to 170 °C.
For the compound `COc1cc2c(cc1OC)N(C)C(=O)CN=C2c1cccc([N+](=O)[O-])c1`, the melting point lay in the range of 152 to 155 °C.
Regarding `CC(C)N(CCN1C(=O)/C(=N/NC(=O)NC2CCCCC2)c2ccccc21)C(C)C`, the melting point was in the range of 164 to 166 °C.
With `CCC(=O)Nc1cc(-c2sc(C(C)O)nc2-c2cccc(C)c2)ccn1` (configuration not stated) the figure was 115 to 116 °C; with `Cc1cnc2c(c1)C[C@H](Cc1ccc(O)cc1)CC2`, 157 to 158 °C; with `CC(C)(C)C(=O)c1oc(N)nc1C(C)(C)C`, 248 to 250 °C.
The compound `O=C(c1cc(Br)cc(Br)c1)c1cc(Br)cc(Br)c1` registered a melting point of 208 to 209 °C.
Regarding `CCOC(=O)Nc1cc(-n2cc(C(=O)OCC)c(=O)c3c(OCc4ccccc4)c(F)c(F)cc32)c(F)cc1F`, the melting point is 130 to 134 °C.
Then `CCOC(=O)C=Cc1ccc(C(=O)Nc2ccc3c(c2)C(C)(C)CCC3(C)C)cc1`, with 166 °C; and `Cn1nc(C(F)(F)F)c(C(=O)Nc2cccc3c2CCC3(C)C)c1Cl`, with 120 °C; and `CCCCCCCCCCCC(=O)NCCO`, with 80 to 84 °C.
Turning to `Cc1occc1C(=O)Nc1ccc(Cl)c(C=NN2CCOCC2)c1`, the melting point lay within 121 to 123 °C.
